As a reminder, the IC50 is the concentration needed to halve the response being measured. Low values mean greater potency, high ones weaker potency.

Structures are written as SMILES.

Results on 18 compounds are retold here after US12281122B1, “PI3K inhibitors” (Cogent Biosciences, Inc., priority 2023, dated 2025).

Experiment [1] concerns SKBR3 (PI3Kα-Wild Type) cell line. The experiment in a line: HTRF phospho-AKT(S473) cell assay in SKBR3 cells. Format: cell-based, human. An outline of the steps:
(§1)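 T47D (PI3Kα-H1047R; RPMI, 10% FBS, insulin) and SKBR3 (wild-type PI3Kα; McCoy's 5A, 10% FBS) cells treated 2 h at 37 °C with 12-point 1:3 dilutions, top 5 μM and 10 μM respectively, ≤0.5% DMSO. SKBR3 stimulated with 70 ng/ml PDGF-BB for the last 15 min; lysate pAKT(S473) by HTRF, IC50 from curves.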
In general terms: Time-resolved FRET reads energy transfer from a long-lived donor to a nearby acceptor.

The test system of experiment [2] is T47D (PI3Kα-H1047R) cell line. The experiment in a line: HTRF phospho-AKT(S473) cell assay in T47D cells. Type of experiment: cell-based, human. An outline of the steps: as §1
[3] abbreviates: Homo sapiens, SK-BR-3; SKBR3 (PI3Kα-Wild Type) cells, HTRF phospho-AKT(S473), 2 hours compound incubation, PDGF-BB stimulated.
Setting [4] is: Homo sapiens; T47D (PI3Kα-H1047R) cells, HTRF phospho-AKT(S473), 2 hours compound incubation.
The mark [5] stands for this setting: Homo sapiens, SK-BR-3; HTRF phospho-AKT(S473), SKBR3 (PI3Kα-Wild Type) cells, 2 hours compound incubation, PDGF-BB stimulated.
Where [6] appears, read: Homo sapiens; HTRF phospho-AKT(S473), T47D (PI3Kα-H1047R) cells, 2 hours compound incubation.

On to `Cc1cc([C@@H](C)Nc2ccc(Cl)nc2C(=O)NS(C)(=O)=O)c2nc(N3CCN(c4ccn(C)n4)CC3)n(C)c(=O)c2c1` [Compound 187, (R)-6-chloro-3-((1-(3,6-dimethyl-2-(4-(1-methyl-1H-pyrazol-3-yl)piperazin-1-yl)-4-oxo-3,4-dihydroquinazolin-8-yl)ethyl)amino)-N-(methylsulfonyl) picolinamide], for which the IC50 is 1 to 5 µM in experiment [1] (setting [3]) and less than 0.25 µM in experiment [2] (setting [4]).
For the compound `Cc1cc([C@@H](C)Nc2ccc(Cl)nc2C(=O)NS(C)(=O)=O)c2nc(N3CCN(c4ccnc(C5CC5)n4)CC3)n(C)c(=O)c2c1` [Compound 590, (R)-6-chloro-3-((1-(2-(4-(2-cyclopropylpyrimidin-4-yl)piperazin-1-yl)-3,6-dimethyl-4-oxo-3,4-dihydroquinazolin-8-yl)ethyl)amino)-N-(methylsulfonyl) picolinamide], the IC50 was 1 to 5 µM in experiment [1] (setting [5]) and less than 0.25 µM in experiment [2] (setting [6]).
As to `Cc1cc([C@@H](C)Nc2ccc(Cl)nc2C(=O)NS(C)(=O)=O)c2nc([C@H]3[C@@H]4CN(c5cnc(C)nc5)C[C@@H]43)n(C)c(=O)c2c1` [Compound 820, 6-chloro-3-(((R)-1-(3,6-dimethyl-2-((1R,5S,6r)-3-(2-methylpyrimidin-5-yl)-3-azabicyclo[3.1.0]hexan-6-yl)-4-oxo-3,4-dihydroquinazolin-8-yl)ethyl)amino)-N-(methylsulfonyl) picolinamide], the IC50 in experiment [1] (setting [5]) is 1 to 5 µM; in experiment [2] (setting [6]) it was less than 0.25 µM.
With `Cc1cc([C@@H](C)Nc2ccc(Cl)nc2C(=O)NS(C)(=O)=O)c2nc(N3C[C@@H]4[C@H](C3)[C@H]4c3n[nH]cc3C)n(C)c(=O)c2c1` [Compound 651, 6-chloro-3-(((R)-1-(3,6-dimethyl-2-((1R,5S,6R)-6-(4-methyl-1H-pyrazol-3-yl)-3-azabicyclo[3.1.0]hexan-3-yl)-4-oxo-3,4-dihydroquinazolin-8-yl)ethyl)amino)-N-(methylsulfonyl) picolinamide], the IC50 in experiment [1] (setting [5]) lay in the range of 1 to 5 µM; in experiment [2] (setting [6]) it was 0.25 to 0.5 µM.
Turning to `Cc1cc([C@@H](C)Nc2ccc(Cl)nc2C(=O)NS(C)(=O)=O)c2nc(N3C[C@@H]4[C@H](C3)[C@H]4c3nn(C)cc3F)n(C3CC3)c(=O)c2c1` [Compound 466, 6-chloro-3-(((R)-1-(3-cyclopropyl-2-((1R,5S,6R)-6-(4-fluoro-1-methyl-1H-pyrazol-3-yl)-3-azabicyclo[3.1.0]hexan-3-yl)-6-methyl-4-oxo-3,4-dihydroquinazolin-8-yl)ethyl)amino)-N-(methylsulfonyl) picolinamide], the IC50 in experiment [1] (setting [5]) is not below 5 µM; in experiment [2] (setting [6]), 0.25 to 0.5 µM.
With `Cc1cc([C@@H](C)Nc2ccc(Cl)nc2C(=O)NS(C)(=O)=O)c2nc(N3C[C@@H]4[C@H](C3)[C@H]4c3cc(C)ncc3F)n(C)c(=O)c2c1` [Compound 495, 6-chloro-3-(((R)-1-(2-((1R,5S,6S)-6-(5-fluoro-2-methylpyridin-4-yl)-3-azabicyclo[3.1.0]hexan-3-yl)-3,6-dimethyl-4-oxo-3,4-dihydroquinazolin-8-yl)ethyl)amino)-N-(methylsulfonyl) picolinamide], the IC50 in experiment [1] (setting [5]) was in the range of 1 to 5 µM; in experiment [2] (setting [6]), 0.25 to 0.5 µM.
`Cc1cc([C@@H](C)Nc2ccc(Cl)nc2C(=O)NS(C)(=O)=O)c2nc(N3CCC(c4nn(C)cc4N(C)C)CC3)n(C)c(=O)c2c1` [Compound 308, (R)-6-chloro-3-((1-(2-(4-(4-(dimethylamino)-1-methyl-1H-pyrazol-3-yl)piperidin-1-yl)-3,6-dimethyl-4-oxo-3,4-dihydroquinazolin-8-yl)ethyl)amino)-N-(methylsulfonyl) picolinamide]: the values for the IC50 in experiment [1] (setting [3]) and in experiment [2] (setting [4]) were not below 5 µM and less than 0.25 µM, respectively.
On to `Cc1cc([C@@H](C)Nc2ccc(Cl)nc2C(=O)NS(C)(=O)=O)c2nc(-c3ccc(Oc4cnn(C)c4)nc3)n(C)c(=O)c2c1` [Compound 816, (R)-6-chloro-3-((1-(3,6-dimethyl-2-(6-((1-methyl-1H-pyrazol-4-yl)oxy)pyridin-3-yl)-4-oxo-3,4-dihydroquinazolin-8-yl)ethyl)amino)-N-(methylsulfonyl) picolinamide], for which the IC50 in experiment [1] (setting [5]) was 1 to 5 µM; in experiment [2] (setting [6]), less than 0.25 µM.
In the case of `Cc1cc([C@@H](C)Nc2ccc(Cl)nc2C(=O)NS(C)(=O)=O)c2nc(N3CCC(C)(c4ccn(C)n4)CC3)n(C)c(=O)c2c1` [Compound 301, (R)-6-chloro-3-((1-(3,6-dimethyl-2-(4-methyl-4-(1-methyl-1H-pyrazol-3-yl)piperidin-1-yl)-4-oxo-3,4-dihydroquinazolin-8-yl)ethyl)amino)-N-(methylsulfonyl) picolinamide], the IC50 in experiment [1] (setting [3]) is not below 5 µM; in experiment [2] (setting [4]), less than 0.25 µM.
For the compound `Cc1cc([C@@H](C)Nc2ccc(Cl)nc2C(=O)NS(C)(=O)=O)c2nc(N3C[C@H]4C[C@@H]3CN4c3ncc(C#N)cc3F)n(C)c(=O)c2c1` [Compound 767, 6-chloro-3-(((R)-1-(2-((1R,4R)-5-(5-cyano-3-fluoropyridin-2-yl)-2,5-diazabicyclo [2.2.1]heptan-2-yl)-3,6-dimethyl-4-oxo-3,4-dihydroquinazolin-8-yl)ethyl)amino)-N-(methylsulfonyl) picolinamide], the IC50 in experiment [1] (setting [5]) is not below 5 µM; in experiment [2] (setting [6]) it was 0.25 to 0.5 µM.
Take `Cc1cc([C@@H](C)Nc2ccc(Cl)nc2C(=O)NS(C)(=O)=O)c2nc(N3Cc4cn(-c5ccnc(C)c5)nc4C3)n(C)c(=O)c2c1` [Compound 146, (R)-6-chloro-3-((1-(3,6-dimethyl-2-(2-(2-methylpyridin-4-yl)-2,6-dihydropyrrolo[3,4-c]pyrazol-5(4H)-yl)-4-oxo-3,4-dihydroquinazolin-8-yl)ethyl)amino)-N-(methylsulfonyl) picolinamide]: the IC50 was 1 to 5 µM in experiment [1] (setting [3]) and less than 0.25 µM in experiment [2] (setting [4]).
As to `Cc1cc([C@@H](C)Nc2ccc(Cl)nc2C(=O)NS(C)(=O)=O)c2nc(N3C[C@H]4C[C@@H]3CN4c3ccc(F)cn3)n(C)c(=O)c2c1` [Compound 602, 6-chloro-3-(((R)-1-(2-((1R,4R)-5-(5-fluoropyridin-2-yl)-2,5-diazabicyclo [2.2.1]heptan-2-yl)-3,6-dimethyl-4-oxo-3,4-dihydroquinazolin-8-yl)ethyl)amino)-N-(methylsulfonyl) picolinamide], the IC50 in experiment [1] (setting [5]) was not below 5 µM; in experiment [2] (setting [6]), 0.25 to 0.5 µM.
Turning to `Cc1cc([C@@H](C)Nc2ccc(Cl)nc2C(=O)NS(C)(=O)=O)c2nc(N3CC[C@@H](Oc4ccc(F)cc4)C3)n(C)c(=O)c2c1` (relative stereo) [Compound 236, 6-chloro-3-(((R)-1-(2-((R*)-3-(4-fluorophenoxy)pyrrolidin-1-yl)-3,6-dimethyl-4-oxo-3,4-dihydroquinazolin-8-yl)ethyl)amino)-N-(methylsulfonyl) picolinamide], the IC50 in experiment [1] (setting [3]) lay in the range of 1 to 5 µM; in experiment [2] (setting [4]), 0.25 to 0.5 µM.
Turning to `Cc1cc([C@@H](C)Nc2ccc(Cl)nc2C(=O)NS(C)(=O)=O)c2nc(N3CCC[C@H](Oc4cnccn4)C3)n(C)c(=O)c2c1` [Compound 377, 6-chloro-3-(((R)-1-(3,6-dimethyl-4-oxo-2-((S)-3-(pyrazin-2-yloxy)piperidin-1-yl)-3,4-dihydroquinazolin-8-yl)ethyl)amino)-N-(methylsulfonyl) picolinamide], the IC50 in experiment [1] (setting [3]) was not below 5 µM; in experiment [2] (setting [4]) it was 0.25 to 0.5 µM.
On to `Cc1cc([C@@H](C)Nc2ccc(Cl)nc2C(=O)NS(C)(=O)=O)c2nc([C@H]3[C@@H]4CN(c5ccc(C)nc5)C[C@@H]43)n(C)c(=O)c2c1` [Compound 829, 6-chloro-3-(((R)-1-(3,6-dimethyl-2-((1R,5S,6r)-3-(6-methylpyridin-3-yl)-3-azabicyclo[3.1.0]hexan-6-yl)-4-oxo-3,4-dihydroquinazolin-8-yl)ethyl)amino)-N-(methylsulfonyl) picolinamide], for which the 50% inhibitory concentration (IC50) in experiment [1] (setting [5]) was not below 5 µM; in experiment [2] (setting [6]), 0.25 to 0.5 µM.
Regarding `Cc1cc([C@@H](C)Nc2ccc(Cl)nc2C(=O)NS(C)(=O)=O)c2nc(N3C[C@@H]4[C@H](C3)[C@H]4c3cnc(C)o3)n(C)c(=O)c2c1` [Compound 518, 6-chloro-3-(((R)-1-(3,6-dimethyl-2-((1R,5S,6R)-6-(2-methyloxazol-5-yl)-3-azabicyclo[3.1.0]hexan-3-yl)-4-oxo-3,4-dihydroquinazolin-8-yl)ethyl)amino)-N-(methylsulfonyl) picolinamide], the IC50 in experiment [1] (setting [5]) is 1 to 5 µM; in experiment [2] (setting [6]) it was less than 0.25 µM.
For the compound `Cc1cc([C@@H](C)Nc2ccc(Cl)nc2C(=O)NS(C)(=O)=O)c2nc(N3CCN(c4nc(C(F)F)ncc4F)CC3)n(C)c(=O)c2c1` [Compound 772, (R)-6-chloro-3-((1-(2-(4-(2-(difluoromethyl)-5-fluoropyrimidin-4-yl)piperazin-1-yl)-3,6-dimethyl-4-oxo-3,4-dihydroquinazolin-8-yl)ethyl)amino)-N-(methylsulfonyl) picolinamide], the IC50 in experiment [1] (setting [5]) is not below 5 µM; in experiment [2] (setting [6]), less than 0.25 µM.
The matching figures for `Cc1cc([C@@H](C)Nc2ccc(Cl)nc2C(=O)NS(C)(=O)=O)c2nc(C3CCCN(c4ncc(F)cn4)C3)n(C)c(=O)c2c1` (mixture of isomers) [Compound 748, 6-chloro-3-(((1R)-1-(2-(1-(5-fluoropyrimidin-2-yl)piperidin-3-yl)-3,6-dimethyl-4-oxo-3,4-dihydroquinazolin-8-yl)ethyl)amino)-N-(methylsulfonyl) picolinamide]: not below 5 µM and 0.5 to 1 µM.
